In patent US20190315823A1, “SMALL CATIONIC ANTI-BIOFILM AND IDR PEPTIDES” (priority 2013, published 2019):
“And” between values parts separate entries of the source, which are not always exact repeats. Equal entries are not always repeated. Where two headings read alike, the source gives them in different places. Peptide text beside a SMILES is read from it.

How the values were obtained:
[1] = test system: human peripheral blood mononuclear cells (MCP-1); assay: MCP-1 chemokine production by ELISA; assay type: cell-based; conditions: 24 hours of stimulation; lowest peptide concentration 20 μg/ml
Procedure: FIG. 19. High production of anti-infective chemokine MCP-1 by human peripheral blood mononuclear cells treated with peptides, as determined by ELISA after 24 hours of stimulation.
Venous blood (20 ml) from healthy volunteers was collected in Vacutainer® collection tubes containing sodium heparin as an anticoagulant (Becton Dickinson, Mississauga, ON) in accordance with UBC ethical approval and guidelines. Blood was diluted 1:1 with complete RPMI 1640 medium and separated by centrifugation over a Ficoll-Paque® Plus (Amersham Biosciences, Piscataway, N.J., USA) density gradient. White blood cells were isolated from the buffy coat, washed twice in RPMI 1640 complete medium, and the number of peripheral blood mononuclear cells (PBMC) was determined by Trypan blue exclusion. PBMC (5×10^5) were seeded into 12-well tissue culture dishes (Falcon; Becton Dickinson) at 0.75 to 1×10^6 cells/ml at 37° C. in 5% CO2. The above conditions were chosen to mimic conditions for circulating blood monocytes entering tissues at the site of infection via extravasation.
Following incubation of the cells under various treatment regimens, the tissue culture supernatants were centrifuged at 1000×g for 5 min, then at 10,000×g for 2 min to obtain cell-free samples. Supernatants were aliquoted and then stored at −20° C. prior to assay for various chemokines by capture ELISA (eBioscience and BioSource International Inc., CA, USA respectively)

[2] = test system: human PBMC (MCP-1); assay: synergy with poly(I:C) to increase MCP-1 production; assay type: cell-based; conditions: 10 μg/ml peptide with 20 μg/ml poly(I:C)
Procedure: FIG. 21. Ability of 10 μg/ml of peptides in combination with 20 or 5 μg/ml of the known adjuvant poly inosine:cytosine [poly(I:C)] to synergize to increase MCP-1 production, a known adjuvant property [see Kindrachuk, J., H. Jenssen, M. Elliott, R. Townsend, A. Nijnik, S. F. Lee, V. Gerdts, L. A. Babiuk, S. A. Halperin and R. E. W. Hancock. 2009. A novel vaccine adjuvant comprised of a synthetic innate defence regulator peptide and CpG oligonucleotide links innate and adaptive immunity. Vaccine 27:4662-4671].
It is well accepted that vaccine immunization is best achieved by co-adminstration of an adjuvant. The precise mechanism by which these adjuvants work has eluded immunologists but appears to work in part by upregulating elements of innate immunity that smooth the transition to adaptive (antigen-specific) immunity (Bendelac A and R. Medzhitov. 2002. Adjuvants of immunity: Harnessing innate immunity to promote adaptive immunity J. Exp. Med. 195:F19-F23). Within this concept there are several possible avenues by which adjuvants might work including the attraction of immune cells into the site at which a particular antigen is injected, through e.g. upregulation of chemokines, the appropriate activation of cells when they reach that site, which can be caused by local cell or tissue damage releasing endogenous adjuvants or through specific cell activation by the adjuvants, and the compartmentalization of immune responses to the site of immunization (the so-called “depot” effect). […] 2010. Immunomodulators as adjuvants for vaccines and antimicrobial therapy. Ann. NY Acad. Sci. 1213:46-61].

[3] = test system: human PBMC (TNFα); assay: LPS-induced TNFα production by ELISA; assay type: cell-based; conditions: P. aeruginosa LPS, 24 hr
Procedure: FIG. 20. Ability of peptides to knockdown pro-inflammatory cytokine TNFα production by human PBMCs in response to bacterial LPS treatment as determined by ELISA after 24 hours.
LPS from P. aeruginosa strain H103 was highly purified free of proteins and lipids using the Darveau-Hancock method. Briefly, P. aeruginosa was grown overnight in LB broth at 37° C. Cells were collected and washed and the isolated LPS pellets were extracted with a 2:1 chloroform:methanol solution to remove contaminating lipids. Purified LPS samples were quantitated using an assay for the specific sugar 2-keto-3-deoxyoctosonic acid (KDO assay) and then resuspended in endotoxin-free water (Sigma-Aldrich).
Human PBMC were obtained as described above and treated with P. aeruginosa LPS (10 or 100 ng/ml) with or without peptides for 24 hr after which supernatants were collected and TNFα assessed by ELISA.

[4] = test system: Pseudomonas aeruginosa (Pa) biofilm; assay: static abiotic solid surface (microtiter, crystal violet) / Bioflux biofilm inhibition screen; assay type: cell-based
Procedure: FIG. 1. Identification of new anti-biofilm peptides active against P. aeruginosa using the microtiter plate screening method with crystal violet staining. […] As a control peptide 1037 was utilized [de la Fuente Nunez et al. 2011].
Methods of assessment of anti-biofilm activity—Biofilm formation was initially analyzed using a static abiotic solid surface assay as described elsewhere (de la Fuente-Nunez et al., 2012). Dilutions (1/100) of overnight cultures were incubated in BM2 biofilm-adjusted medium [62 mM potassium phosphate buffer (pH 7), 7 mM (NH4)2SO4, 2 mM MgSO4, 10 μM FeSO4, 0.4% (wt/vol) glucose, 0.5% (wt/vol) Casamino Acids], or a nutrient medium such as Luria Broth, in polypropylene microtiter plates (Falcon, United States) in the absence (control) or presence of peptide. Peptide was added at time zero (prior to adding the diluted, overnight cultures) in varying concentrations, and the decrease in biofilm formation was recorded at 22-46 h for most bacteria. Planktonic cells were removed, biofilm cells adhering to the side of the tubes were stained with crystal violet, and absorbance at 595 nm was measured using a microtiter plate reader (Bio-Tek Instruments Inc., United States). Some peptides were screened against two Gram negative organisms, P. aeruginosa and K. pneumoniae using a Bioflux apparatus (AutoMate Scientific, Berkeley, Calif.; http://www.autom8.com/bioflux_biofilm.html), which allows for the high-throughput, real-time analysis of biofilms.

[5] = test system: methicillin resistant S. aureus (Sa) biofilm; assay type: cell-based, Staphylococcus aureus; conditions: peptide 5 μg/ml
[6] = test system: K. pneumoniae biofilm; assay: checkerboard titration biofilm synergy (FIC); assay type: cell-based
Procedure: (§1) Peptides and various conventional antibiotics were analyzed by checkerboard titration into microtiter trays using CLSI methods (Wiegand, I., K. Hilpert, and R. E. W. Hancock. 2008. Nature Protocols 3:163-175), bacteria added and, after overnight incubation at 37° C., the residual biofilm assessed by the crystal violet method mentioned in the body of the grant, with an A595 of 0.2 considered as 100% biofilm inhibition. The effects of the peptide in reducing the minimal biofilm inhibitory concentration (MBIC) of the antibiotic and vice versa were assessed using the Fractional Inhibitory Concentration (FIC) method whereby ΣFTC=FICA+FICB=(CA/MICA)+(CB/MICB), where MBICA and MBICB are the MBICs of peptide A and antibiotic B alone, respectively, and CA and CB (expressed in μg/ml) are the MICs of the drugs in combination. This conventional clinical microbiology assay is interpreted as follows

[7] = test system: A. baumannii biofilm; assay: checkerboard titration biofilm synergy (FIC); assay type: cell-based
Procedure: as §1

[8] = test system: Salmonella biofilm; assay: checkerboard titration biofilm synergy (FIC); assay type: cell-based
Procedure: as §1

[9] = test system: E. coli biofilms; assay: checkerboard titration biofilm synergy (MBIC, FIC); assay type: cell-based
Procedure: as §1

[10] = test system: S. aureus biofilms; assay: checkerboard titration biofilm synergy (MBIC, FIC); assay type: cell-based
Procedure: as §1

[11] = test system: P. aeruginosa biofilms; conditions: P. aeruginosa biofilm
Procedure: as §1

[12] = antibiotic in combination with peptide 1018
[13] = antibiotic in combination with peptide DJK5
[14] = in combination with peptide 1018
[15] = in combination with peptide DJK5
[16] = in the presence of peptide 1018
[17] = in the presence of peptide DJK5

CC[C@H](C)[C@H](NC(=O)[C@H](CC(C)C)NC(=O)[C@H](CCCNC(=N)N)NC(=O)[C@@H](N)C(C)C)C(=O)N[C@@H](Cc1c[nH]c2ccccc12)C(=O)N[C@@H](C)C(=O)N[C@H](C(=O)N[C@@H](CCCNC(=N)N)C(=O)N[C@H](C(=O)N[C@@H](Cc1c[nH]c2ccccc12)C(=O)N[C@@H](CCCNC(=N)N)C(=O)N[C@@H](CCCNC(=N)N)C(N)=O)[C@@H](C)CC)C(C)C [HE4] (H-VRLIWAVRIWRR-NH2; N-terminus assumed)
MCP-1 induction [1]: clearly superior to peptide 1018
synergy with poly(I:C) in MCP-1 production [2]: showed synergy
suppression of LPS-induced TNFα [3]: strongly suppressed

CC[C@H](C)[C@H](NC(=O)[C@H](CCCNC(=N)N)NC(=O)[C@@H](NC(=O)[C@@H](NC(=O)[C@H](CC(C)C)NC(=O)[C@H](CCCNC(=N)N)NC(=O)[C@@H](N)C(C)C)[C@@H](C)CC)C(C)C)C(=O)N[C@@H](Cc1c[nH]c2ccccc12)C(=O)N[C@@H](CCCNC(=N)N)C(=O)N[C@@H](CCCNC(=N)N)C(N)=O [HE10] (H-VRLIVRIWRR-NH2; N-terminus assumed)
MCP-1 induction [1]: clearly superior to peptide 1018
synergy with poly(I:C) in MCP-1 production [2]: showed synergy
suppression of LPS-induced TNFα [3]: strongly suppressed

CC[C@H](C)[C@H](N)C(=O)N[C@@H](CC(C)C)C(=O)N1CCC[C@H]1C(=O)N[C@@H](Cc1c[nH]c2ccccc12)C(=O)N[C@@H](CCCCN)C(=O)N[C@@H](Cc1c[nH]c2ccccc12)C(=O)N1CCC[C@H]1C(=O)N[C@@H](Cc1c[nH]c2ccccc12)C(=O)N[C@@H](Cc1c[nH]c2ccccc12)C(=O)N1CCC[C@H]1C(=O)N[C@@H](Cc1c[nH]c2ccccc12)C(=O)N[C@@H](CCCNC(=N)N)C(=O)N[C@@H](CCCNC(=N)N)C(N)=O [Indolicidin, reference compound]
% Biofilm Inhibition Pa ([4]; Pa) biofilm, 10 μg/ml): 29%
% Biofilm Inhibition Sa [5]: 48%

NC[C@H]1O[C@H](O[C@H]2[C@H](O)[C@@H](O[C@H]3O[C@H](CO)[C@@H](O)[C@H](N)[C@H]3O)[C@H](N)C[C@@H]2N)[C@H](N)C[C@@H]1O [Tobramycin]
FIC [6, 12]: 0.31
FIC [6, 13]: 0.75
Fold decrease in antibiotic MIC in the presence of peptide ([6]; peptide DJK5): 4X
FIC [7, 12]: 0.38
FIC [7, 13]: 0.56
Fold decrease in antibiotic MIC in the presence of peptide ([7]; peptide DJK5): 16X
FIC [8, 12]: 0.75
FIC [8, 13]: 1.03
Fold decrease in antibiotic MIC in the presence of peptide ([8]; peptide DJK5): 32X
FIC [9, 12]: 0.375 and 0.38
FIC [9, 13]: 0.5625 and 0.56
MBIC ([9]; compound alone): 6.4 µg/mL
concentration of antibiotic at FIC [9, 14]: 1.6 µg/mL
concentration of antibiotic at FIC [9, 15]: 0.4 µg/mL
Fold decrease in antibiotic concentration [9, 16]: 4X
Fold decrease in antibiotic concentration / antibiotic MIC [9, 17]: 16X
FIC [10, 12]: 0.52 and 0.5
FIC [10, 13]: 1
MBIC ([10]; compound alone): >102.4 µg/mL
concentration of antibiotic at FIC [10, 14]: 1.6 µg/mL
concentration of antibiotic at FIC [10, 15]: 1.6 µg/mL
Fold decrease in antibiotic concentration [10, 16]: 64X
Fold decrease in antibiotic concentration / antibiotic MIC [10, 17]: 64X
FIC [11, 12]: 0.502 and 0.5
FIC [11, 13]: 0.51 and 0.5
Concentration of antibiotic at the FIC [11, 14]: 1.6 µg/mL
Concentration of antibiotic at the FIC [11, 15]: 1.6 µg/mL

CC[C@H](C)[C@H](N)C(=O)N[C@@H](CC(C)C)C(=O)N[C@@H](CCCCN)C(=O)N[C@@H](CCCCN)C(=O)N[C@@H](Cc1c[nH]c2ccccc12)C(=O)N1CCC[C@H]1C(=O)N[C@@H](Cc1c[nH]c2ccccc12)C(=O)N[C@@H](Cc1c[nH]c2ccccc12)C(=O)N1CCC[C@H]1C(=O)N[C@@H](Cc1c[nH]c2ccccc12)C(=O)N[C@@H](CCCNC(=N)N)C(=O)N[C@@H](CCCNC(=N)N)C(=O)N[C@@H](CCCCN)C(N)=O [Peptide 11CN] (H-ILKKWPWWPWRRK-NH2; N-terminus assumed)
% Biofilm Inhibition Sa [5]: 32%

CC[C@H](C)[C@H](NC(=O)[C@H](CCCNC(=N)N)NC(=O)[C@H](C)NC(=O)[C@@H](NC(=O)[C@H](CC(C)C)NC(=O)[C@H](CCCNC(=N)N)NC(=O)[C@H](CCCNC(=N)N)NC(=O)[C@@H](NC(=O)[C@@H](NC(=O)[C@H](CCCNC(=N)N)NC(=O)[C@@H](N)CCCCN)[C@@H](C)CC)C(C)C)C(C)C)C(=O)N[C@H](C(N)=O)C(C)C [Peptide 1017] (H-KRIVRRLVARIV-NH2; N-terminus assumed)
% Biofilm Inhibition Pa ([4]; peptide 10 μg/ml): 26%
% Biofilm Inhibition Sa [5]: 21%

CC[C@H](C)[C@H](NC(=O)[C@@H](NC(=O)[C@H](CCCNC(=N)N)NC(=O)[C@H](C)NC(=O)[C@@H](NC(=O)[C@H](CCCNC(=N)N)NC(=O)[C@H](CCCCN)NC(=O)[C@H](Cc1ccccc1)NC(=O)[C@@H](N)CCCNC(=N)N)C(C)C)C(C)C)C(=O)N[C@@H](Cc1c[nH]c2ccccc12)C(N)=O [HE12] (H-RFKRVARVIW-NH2; N-terminus assumed)
MCP-1 induction [1]: clearly superior to peptide 1018
synergy with poly(I:C) in MCP-1 production [2]: showed synergy
suppression of LPS-induced TNFα [3]: strongly suppressed
